Measurements taken from the supplement of paper PMC11451515.

Tested on: SEM cells
Experiment: cell viability relative to DMSO control; higher = less cytotoxic
Conditions: 48 h
Method in brief: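 Library compounds in DMSO were pin-dosed in an 11-point threefold series (47 μM to 0.79 nM) onto leukemia cells in 1536-well plates (5 μl). Plates held 500 cells/well of NOMO1 or SEM or 1000 cells/well of P12-Ichikawa, each adapted for at least four passages in each medium. Luminescence was read with CellTiter-Glo One after 48 h at 37°C. Viability means the per-plate percentage relative to DMSO wells, using cell-free wells as background.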

[1] = HPLM + 10% dialyzed FBS, 0.000781 µM
[2] = HPLM + 10% dialyzed FBS, 0.00234 µM
[3] = HPLM + 10% dialyzed FBS, 0.00702 µM
[4] = HPLM + 10% dialyzed FBS, 0.0211 µM
[5] = HPLM + 10% dialyzed FBS, 0.0632 µM
[6] = HPLM + 10% dialyzed FBS, 0.19 µM
[7] = HPLM + 10% dialyzed FBS, 0.569 µM
[8] = HPLM + 10% dialyzed FBS, 1.71 µM
[9] = HPLM + 10% dialyzed FBS, 5.12 µM
[10] = HPLM + 10% dialyzed FBS, 15.4 µM
[11] = HPLM + 10% dialyzed FBS, 46.1 µM
[12] = RPMI 5 mM glucose + 10% FBS, 0.000781 µM
[13] = RPMI 5 mM glucose + 10% FBS, 0.00234 µM
[14] = RPMI 5 mM glucose + 10% FBS, 0.00702 µM
[15] = RPMI 5 mM glucose + 10% FBS, 0.0211 µM
[16] = RPMI 5 mM glucose + 10% FBS, 0.0632 µM
[17] = RPMI 5 mM glucose + 10% FBS, 0.19 µM
[18] = RPMI 5 mM glucose + 10% FBS, 0.569 µM
[19] = RPMI 5 mM glucose + 10% FBS, 1.71 µM
[20] = RPMI 5 mM glucose + 10% FBS, 5.12 µM
[21] = RPMI 5 mM glucose + 10% FBS, 15.4 µM
[22] = RPMI 5 mM glucose + 10% FBS, 46.1 µM
[23] = RPMI 5 mM glucose + 10% dialyzed FBS, 0.000781 µM
[24] = RPMI 5 mM glucose + 10% dialyzed FBS, 0.00234 µM
[25] = RPMI 5 mM glucose + 10% dialyzed FBS, 0.00702 µM
[26] = RPMI 5 mM glucose + 10% dialyzed FBS, 0.0211 µM
[27] = RPMI 5 mM glucose + 10% dialyzed FBS, 0.0632 µM
[28] = RPMI 5 mM glucose + 10% dialyzed FBS, 0.19 µM
[29] = RPMI 5 mM glucose + 10% dialyzed FBS, 0.569 µM
[30] = RPMI 5 mM glucose + 10% dialyzed FBS, 1.71 µM
[31] = RPMI 5 mM glucose + 10% dialyzed FBS, 5.12 µM
[32] = RPMI 5 mM glucose + 10% dialyzed FBS, 15.4 µM
[33] = RPMI 5 mM glucose + 10% dialyzed FBS, 46.1 µM

Row | Structure (SMILES) | cell viability [1] [%] | cell viability [2] [%] | cell viability [3] [%] | cell viability [4] [%] | cell viability [5] [%] | cell viability [6] [%] | cell viability [7] [%] | cell viability [8] [%] | cell viability [9] [%] | cell viability [10] [%] | cell viability [11] [%] | cell viability [12] [%] | cell viability [13] [%] | cell viability [14] [%] | cell viability [15] [%] | cell viability [16] [%] | cell viability [17] [%] | cell viability [18] [%] | cell viability [19] [%] | cell viability [20] [%] | cell viability [21] [%] | cell viability [22] [%] | cell viability [23] [%] | cell viability [24] [%] | cell viability [25] [%] | cell viability [26] [%] | cell viability [27] [%] | cell viability [28] [%] | cell viability [29] [%] | cell viability [30] [%] | cell viability [31] [%] | cell viability [32] [%] | cell viability [33] [%]
1 | CC1=CC=C2\N=C/3N(CC[C@@]3(O)C(=O)C2=C1)C4=CC=CC=C4 | 89.5 | 88.6 | 97.7 | 87.3 | 94.5 | 93 | 96.6 | 95 | 70.5 | 85.8 | 93 | 119 | 120 | 98.3 | 120 | 108 | 121 | 97 | 94.9 | 92.4 | 117 | 107 | 86.8 | 83.2 | 85.6 | 95.7 | 92.6 | 76.6 | 101 | 78.3 | 70.8 | 87.2 | 94.5
2 | CCN1\C=C(C(O)=O)/C(=O)C2=C1C=C(N3CCN(C)CC3)C(=C2)F | 107 | 112 | 98.6 | 117 | 104 | 115 | 129 | 105 | 109 | 110 | 96.7 | 108 | 112 | 128 | 116 | 107 | 120 | 105 | 117 | 108 | 107 | 103 | 107 | 114 | 108 | 107 | 95.6 | 108 | 106 | 83.6 | 106 | 109 | 91.8
3 | O=C(c1ccc(/C=C/c2n[nH]c3ccccc23)cc1)N1CCNCC1 | 82.7 | 77.8 | 83.4 | 79 | 60.7 | 53.2 | 48.1 | 16.3 | 20 | 19.3 | 19.8 | 109 | 120 | 106 | 85.3 | 82.7 | 56.2 | 62.1 | 10.9 | 11.7 | 12.3 | 13.3 | 75.8 | 78.2 | 73.1 | 80.2 | 66.3 | 51.9 | 38.2 | 15.9 | 15.9 | 14.6 | 13.3
4 | CCC[C@@H](C=O)NC(=O)[C@H](CC(C)C)NC(=O)[C@H](CC(C)C)NC(=O)OCc1ccccc1 | 107 | 111 | 106 | 121 | 124 | 117 | 132 | 92.7 | 8.49 | 8.38 | 6.36 | 105 | 103 | 125 | 111 | 129 | 130 | 55.3 | 8.42 | 8.05 | 8.14 | 6.25 | 97.6 | 101 | 120 | 116 | 134 | 119 | 118 | 45.7 | 9.18 | 8.63 | 6.53
5 | Oc1cc2c(cc1O)C1c3ccc(O)c(O)c3OCC1(O)C2 (stereo not drawn) | 83.5 | 32.7 | 89.1 | 88.3 | 100 | 102 | 93 | 100 | 99.7 | 100 | 90.6 | 83.8 | 36.7 | 99.2 | 102 | 91.3 | 105 | 101 | 88.8 | 108 | 101 | 87.7 | 92.7 | 34.3 | 102 | 91.7 | 86.4 | 107 | 92.9 | 106 | 104 | 111 | 89.5
6 | CCOC(CN1C(=O)[C@](CC(=O)Nc2ccc(C)cc2)(NC(=O)Nc2ccc(C)cc2)c2ccccc21)OCC | 117 | 101 | 105 | 120 | 105 | 116 | 114 | 102 | 86.6 | 99.6 | 73.5 | 99 | 98.8 | 113 | 108 | 99.4 | 108 | 119 | 87.7 | 75.9 | 77.3 | 79.9 | 109 | 115 | 100 | 113 | 122 | 113 | 110 | 98.4 | 102 | 105 | 66.5
7 | O=[S+]([O-])(O)c1ccc2cc(/N=N/c3cc([S+](=O)([O-])O)c4cccnc4c3O)ccc2c1 | 115 | 120 | 120 | 28.8 | 133 | 132 | 126 | 117 | 120 | 119 | 39.9 | 115 | 124 | 113 | 17.8 | 115 | 114 | 121 | 112 | 103 | 105 | 25.5 |  |  |  |  |  |  |  |  |  |  | 
8 | COc1cccc2c(NCc3ccccc3)nc(-n3c(N)nc4ccccc43)nc12 | 81.2 | 88.4 | 104 | 93.6 | 89.1 | 90.6 | 83.2 | 92.2 | 64.1 | 29.6 | 8.4 | 95.2 | 92.8 | 98.7 | 97.5 | 94.8 | 87.6 | 95 | 72.1 | 54.9 | 24.3 | 7.18 | 81.8 | 73.7 | 91.9 | 99.8 | 111 | 106 | 85.9 | 76.5 | 65.1 | 45.2 | 9.78
